Here are results for two molecules from paper PMC9374667 (Communications Biology, 2022).

Where “and” joins values, the source holds several entries; their conditions need not be identical. Equal values may be shown once. Read-outs that look alike come from different tables or passages of the source.

The conditions of data set [1]: no reference given; cited from earlier work.
Data set [2] is described as follows: Berberine content in adipose tissue of db/db mice (HPLC). As to conditions: BJ 75 and 150 mg/kg, BBR 150 mg/kg, crushing, extracting. An excerpt: Response: We thank the Reviewer for this comment. In line with the Reviewer ’s
each group by crushing, extracting, and HPLC analysis.
based on the improved bioavailability.
Figure 1. (a) The positions of the peaks of berberine standards in the HPLC assay.

The test system of a further data set is Ikbke. Put plainly: RT-qPCR of Ikbke in eWAT and BAT. As to conditions: db/db mice, both doses of BJ. It counts as in vivo. An excerpt: Total RNA was isolated from 3T3-L1 cells and adipose tissue homogenates using Trizol reagent (Invitrogen, Carlsbad, CA, USA). RNA concentration and purity were examined at 260/280 nm using a nanodrop spectrophotometer (NanoDrop One, Thermo Fisher Scientific, USA). The total RNA was reverse transcribed to cDNA using the EasyScript All-in-One First-Strand cDNA Synthesis SuperMix for qPCR kit (TransGen Biotech, Beijing, China). The quantitative reverse transcription polymerase chain reaction was performed using TransStart Top Green qPCR SuperMix (TransGen Biotech, Beijing, China) and an Applied Biosystems 7500 RealTime PCR System (Life Technologies, USA). Relative expression levels were normalized to gapdh expression and quantified using the 2^-ΔΔCt method. The primers were synthesized by Shanghai Sangon Biotech, and the detailed primer sequences were shown in Supplementary Table 5 in the supplementary materials.
Background: Quantitative PCR measures a nucleic acid by following its amplification.

Data set [3] deals with T1, IKKε (Mus musculus, UniProt Q9R0T8).
T1 sequence (Q9R0T8 1-717): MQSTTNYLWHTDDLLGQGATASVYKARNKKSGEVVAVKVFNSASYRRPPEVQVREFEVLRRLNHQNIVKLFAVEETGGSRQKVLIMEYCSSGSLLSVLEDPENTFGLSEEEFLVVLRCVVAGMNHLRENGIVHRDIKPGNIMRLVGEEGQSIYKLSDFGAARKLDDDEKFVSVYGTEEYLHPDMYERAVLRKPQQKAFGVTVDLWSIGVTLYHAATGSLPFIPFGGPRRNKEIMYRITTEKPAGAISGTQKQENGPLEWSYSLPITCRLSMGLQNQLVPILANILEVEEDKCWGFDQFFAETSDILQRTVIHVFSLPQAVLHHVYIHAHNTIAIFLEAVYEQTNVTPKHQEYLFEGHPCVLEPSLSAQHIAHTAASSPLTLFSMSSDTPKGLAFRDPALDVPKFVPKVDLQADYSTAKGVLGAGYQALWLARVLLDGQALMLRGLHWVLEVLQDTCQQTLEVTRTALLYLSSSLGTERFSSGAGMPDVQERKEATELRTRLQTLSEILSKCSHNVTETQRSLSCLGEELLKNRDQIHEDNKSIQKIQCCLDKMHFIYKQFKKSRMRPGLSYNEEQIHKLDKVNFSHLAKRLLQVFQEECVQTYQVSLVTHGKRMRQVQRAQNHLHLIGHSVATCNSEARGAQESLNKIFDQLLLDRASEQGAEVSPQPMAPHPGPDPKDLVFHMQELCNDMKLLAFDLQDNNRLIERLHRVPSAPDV
Put plainly: 3T3-L1 adipocytes transfected with IKKε plasmid (western blotting, cAMP, glycerol, ISO). The data set is classed as cell-based, Murine. On the set-up: endogenous in cells; host or cells: differentiated 3T3-L1 adipocytes; IKKε (western blotting, Figure 8h) / UCP1 (western blotting, Figure 8i) / UCP1 (western blotting, Figure 8j): scale not given here; cAMP levels (Figure 8k) / Glycerol release (Figure 8l): unit not given here. The procedure: Small interference RNA transfection (siRNA) was performed using 4 μM TBK1 siRNA (siTBK1) or 4 μM […]ε) or corresponding NC siRNA (siNC). The epididymal adipose tissue was dissected, the fresh adipose tissue was weighed and rapidly rinsed with PBS. The adipose tissue was cut and incubated with isoproterenol (10 μM) for 2 h, and homogenized in a cold cleavage buffer to prepare the adipose tissue homogenate. Then the homogenate was centrifuged at 12,000 × g at 4 °C for 15 min, and the supernatant was collected. […] Then the cells were lysed in a petri dish, scraped off, and centrifuged at 12,000 × g at 4 °C for 15 min before the supernatant was collected. […] And concentrations were further standardized according to protein concentration. The adipose tissue or 3T3-L1 adipocytes were homogenized by ultrasound in an ice-cold RIPA lysis buffer containing 1% PMSF and centrifuged at 12,000 × g at 4°C for 15 min to collect the supernatant. The BCA protein assay kit (Beyotime, Shanghai, China) was used to detect the total protein concentration. Proteins (20-30 μg) of the sample were separated by 10% SDS-PAGE gel and transferred onto polyvinylidene difluoride (PVDF) membranes. Then the PVDF membranes were blocked in 5% skim milk powder in TBS containing 1% Tween-20 (TBST) for 2 h at room temperature and washed with TBST for 3 times. […] After washing, the membranes were incubated with horseradish peroxidase-conjugated secondary antibodies (in 5% skim milk powder) for 1 h at room temperature. Finally, the membranes were treated with enhanced chemiluminescence agents (Tanon, Shanghai, China) and the signals were monitored using the Tanon 5200 multi chemiluminescent imaging system (Tanon, Shanghai, China).
On the technique in general: Immunoblotting shows a protein as a band on a membrane.

Data set [4] deals with T1, IKKε. Put plainly: IKKε activity assay in BAT. The data set is classed as in vivo, mice. On the set-up: The adipose tissue was ultrasound-crushed in PBS buffer solution (1:9 w/v) to prepare the tissue homogenate; from tissue; host or cells: epididymal white adipose tissue (eWAT) and brown adipose tissue (BAT) of C57BLKS WT and db/db mice. The settings on record: for the expression of IKKε in BAT of db/db mice: Figure 6l, individual values. As to the method:
The adipose tissue was ultrasound-crushed in PBS buffer solution (1:9 w/v) to prepare the tissue homogenate. The tissue homogenate was centrifuged at 5000 × g for 10 min, and the supernatant was taken for detection. Briefly, samples or standards were added to the microplates pre-coated with IKKε antibody or TBK1 antibody. Then horseradish peroxidase (HRP) labeled antibody was added and incubated at 37 °C for 60 min. After thorough washing, the 3,3′,5,5′-tetramethylbenzidine (TMB) substrate was used for color development, and the absorbance (OD value) was determined at 450 nm.

Setting [5] is: 3T3-L1 adipocytes transfected with IKKε plasmid, 24 h of BJ treatment.

`COc1ccc2cc3[n+](cc2c1OC)CCc1cc2c(cc1-3)OCO2` [BBR, Berberine chloride dihydrate]: in data set [1], the Oral bioavailability entry is “below 1%”. In data set [2], the “BBR in adipose tissue (accumulation)” value was “not detected”.
In the case of `CC(C)Cc1ccc(C(C)C(=O)[O-])cc1.COc1ccc2cc3[n+](cc2c1OC)CCc1cc2c(cc1-3)OCO2.O.O.O.O` [BJ, berberine-ibuprofen], the “Ikbke mRNA expression in BAT” value in the data set with Ikbke is “had no effect”. The “mRNA level of IKKε (Ikbke) in eWAT” value in the data set with Ikbke is listed as “significantly reduced”. Also, the “IKKε (western blotting, Figure 8h)” value was 0.3064 and 0.3337 and 0.413 at IKKε [3]; 0.3573 and 0.3516 and 0.3871 on IKKε [3] (3μg IKKε+10μM BJ). Besides, the “UCP1 (western blotting, Figure 8i)” value at IKKε [3] (3μg IKKε+10μM BJ) is 0.8819 and 0.7296 and 0.665; at IKKε [3] (10μM BJ), 0.7179 and 0.7672 and 0.7892. On IKKε [3] (setting [5]), the IKKε protein level entry was “significantly decreased”. Besides, the UCP1 protein level entry on IKKε [3] (setting [5]) is “significantly increased”. Also, the “Glycerol release (Figure 8l)” value was 86.9484 and 84.4172 and 92.0109 on IKKε [3] (BJ); 68.3861 and 70.0736 and 61.6362 at IKKε [3] (BJ+IKKε); 156.135 and 153.604 and 151.073 at IKKε [3] (ISO+BJ); 123.229 and 124.917 and 128.292 on IKKε [3] (ISO+BJ+IKKε). For the same molecule, the “UCP1 (western blotting, Figure 8j)” value on IKKε [3] (BJ) is 0.7729 and 0.7093 and 0.8167; at IKKε [3] (BJ+IKKε) it was 0.4841 and 0.4628 and 0.4991; on IKKε [3] (ISO+BJ), 0.9653 and 0.8916 and 1.268; at IKKε [3] (ISO+BJ+IKKε), 0.6833 and 0.6687 and 0.7939. Also, the “cAMP levels (Figure 8k)” value on IKKε [3] (BJ) is 0.1832 and 0.1783 and 0.1808; on IKKε [3] (BJ+IKKε) it was 0.1738 and 0.178 and 0.1687; at IKKε [3] (ISO+BJ), 0.3323 and 0.3162 and 0.3269; at IKKε [3] (ISO+BJ+IKKε), 0.2266 and 0.2216 and 0.2337. For the same molecule, the “Inhibition of ISO efficacy (UCP1, glycerol release, cAMP) by IKKε overexpression” value on IKKε [3] (transfected 3T3-L1 adipocytes, 10 µM BJ) is given as “ameliorated”. Further, the “the expression of IKKε in BAT of db/db mice” value was 0.441 U/g and 0.458 U/g and 0.427 U/g and 0.409 U/g and 0.371 U/g and 0.436 U/g at IKKε [4] (db/db+BJ 75mg/kg); 0.429 U/g and 0.4 U/g and 0.314 U/g and 0.335 U/g and 0.348 U/g and 0.398 U/g on IKKε [4] (db/db+BJ 150mg/kg). Also, the “IKKε activity and expression levels in BAT” value at IKKε [4] (db/db mice, both doses of BJ) is given as “had no effect”.
